Patent publication US9352049B2, “Ligand-therapeutic agent conjugates, silicon-based linkers, and methods for making and using them” (Albany Molecular Research, Inc., priority 2013, dated 2016)
Counter-ions that a name gives are not always drawn. Like-named read-outs stand apart in the source and are kept apart here.

Key:
[1] = tested on: Folate receptor (FR)-positive KB cells; experiment: cells; type: cell-based, Human; details: for IC50: read-out: IC50, Inhibition of Cell Growth by the PrestoBlue Method; for inhibition at 10 µM: KB, read-out: Percentage inhibition at the highest concentration tested (10 μM)
Procedure: (§1) Folate receptor (FR)-positive KB cells (Human) from European Collection of Cell Cultures (ECACC) [Catalogue #94050408] or FR-negative human lung carcinoma A549 cells from American Type Culture Collection (ATCC) [Catalogue # CCL-185] were maintained in T75 flasks in folic acid-free RPMI 1640 medium (Invitrogen, catalogue no. 27016021) containing 10% fetal bovine serum (FBS; Invitrogen, catalogue no. 16140-071) and penicillin/streptomycin (Invitrogen, catalogue no. 15140-122) at 37° C., 5% CO2.
(§2) Cells were harvested from their maintenance cultures and seeded in 96-well plates at a density of 10000 cells per well in 100 μL folic acid-free RPMI 1640 medium and incubated at 37° C., 5% CO2 for 20-24 hours. Thirty minutes prior to compound treatment, spent medium was removed and replaced with 100 μL fresh folic acid-free RPMI 1640 medium either as such, or supplemented with 100 μmol/L folic acid. The test compounds were diluted to three times their desired final concentrations in the culture medium from their DMSO stocks. […] Following compound treatment, the cells were washed thrice with 100 μL medium and incubated with 180 μL fresh medium for 72 hours. To assess cell viability, 20 μL of PrestoBlue reagent (Invitrogen, catalogue # A-13261) was added to the wells and the plates were further incubated for 1 hour at 37° C. The PrestoBlue reagent contains a cell-permeant dye, resazurin, which is blue in color and virtually nonfluorescent. When added to cells, it is reduced by the mitochondrial enzymes in viable cells to red, highly fluorescent resorufin. Resazurin reduction is proportional to the number of metabolically active cells and therefore can be measured quantitatively. Following incubation with the PrestoBlue reagent for 1 hour, fluorescence corresponding to the resorufin dye was read on a Synergy 4 multimode microplate reader (Biotek Instruments) with the excitation and emission wavelengths set at 540 nm and 590 nm respectively. The data was analysed using XLFit and the percentage inhibition of cell proliferation was calculated.

[2] = tested on: FR-negative human lung carcinoma A549 cells; experiment: cells; type: cell-based; details: for IC50: read-out: IC50, Inhibition of Cell Growth by the PrestoBlue Method; for inhibition at 10 µM: read-out: Percentage inhibition at the highest concentration tested (10 μM)
Procedure: as §1, §2

[3] = Cleavage study of silyl conjugates at pH 7.4 (THF:0.01 M PBS buffer, 37° C.); type: physicochemical; details: THF:0.01 M PBS buffer (pH 7.4), 37° C., over 20 hours
Procedure: To study the release properties of the silyl conjugates, the conjugates were subject to hydrolysis conditions at both pH 7.4 and pH 4.5 to simulate blood and endosomes/lysosome environments, respectively.
Example 12 and Example 15 were dissolved in THF:0.01 M PBS buffer (pH 7.4) and heated to 37° C. with stirring for over 20 hours. […] Additionally, Example 11 was trapped with methyl-3-mercaptopropionate to approximate a bioconjugate.

[4] = Homo sapiens, No FA, incubation 2 h
[5] = Homo sapiens, No FA, incubation 4 h
[6] = Homo sapiens, No FA, incubation 8 h
[7] = Homo sapiens, No FA, incubation 16 h

CC[C@]1(O)C[C@H]2CN(CCc3c([nH]c4ccccc34)[C@@](C(=O)OC)(c3cc4c(cc3OC)N(C)[C@@H]3C45CCN4CC=C[C@](CC)([C@H]45)[C@@H](O)[C@]3(O)C(=O)OC)C2)C1 (some centres unmarked) [4-desacetylvinblastine, reference compound]
IC50 ([1]; No FA, incubation 2 h): 0.045 µM | IC50 ([1]; No FA, incubation 4 h): 0.01 µM | IC50 ([1]; No FA, incubation 8 h): 0.002 µM | IC50 ([1]; No FA, incubation 16 h): 0.003 µM | IC50 ([2]; No FA, incubation 2 h): 4.6 µM | IC50 ([2]; No FA, incubation 4 h): 0.633 µM | IC50 ([2]; No FA, incubation 8 h): 0.129 µM | IC50 ([2]; No FA, incubation 16 h): 0.057 µM

Nc1nc(O)c2nc(CNc3ccc(C(=O)N[C@@H](CCC(=O)NCCOCCOCCNC(=O)CCCC[Si]4(O)CCCCC4)C(=O)O)cc3)cnc2n1 [Compound Z, (S)-2-(4-(((2-amino-4-hydroxypteridin-6-yl)methyl)amino)benzamido)-20-(1-hydroxysilinan-1-yl)-5,16-dioxo-9,12-dioxa-6,15-diazaicosan-1-oic acid triethylammonium salt, reference compound]
IC50 ([1]; 100 μM FA, incubation 2 h): > 10 µM | IC50 ([1]; 100 μM FA, incubation 4 h): > 10 µM | IC50 ([1]; 100 μM FA, incubation 8 h): > 10 µM | IC50 ([1]; 100 μM FA, incubation 16 h): > 10 µM | inhibition at 10 µM ([1]; Homo sapiens, 2 h, 100 μM FA, incubation 2 h): 1% | inhibition at 10 µM ([1]; Homo sapiens, 2 h, No FA, incubation 2 h): ≤ 0% | inhibition at 10 µM ([1]; Homo sapiens, 4 h, 100 μM FA, incubation 4 h): ≤ 0% | inhibition at 10 µM ([1]; Homo sapiens, 4 h, No FA, incubation 4 h): ≤ 0% | inhibition at 10 µM ([1]; Homo sapiens, 8 h, 100 μM FA, incubation 8 h): ≤ 0% | inhibition at 10 µM ([1]; Homo sapiens, 8 h, No FA, incubation 8 h): ≤ 0% | inhibition at 10 µM ([1]; Homo sapiens, 16 h, 100 μM FA, incubation 16 h): 2% | inhibition at 10 µM ([1]; Homo sapiens, 16 h, No FA, incubation 16 h): 1% | IC50 [1, 4]: > 10 µM | IC50 [1, 5]: > 10 µM | IC50 [1, 6]: > 10 µM | IC50 [1, 7]: > 10 µM | IC50 ([2]; 100 μM FA, incubation 2 h): > 10 µM | IC50 ([2]; 100 μM FA, incubation 4 h): > 10 µM | IC50 ([2]; 100 μM FA, incubation 8 h): > 10 µM | IC50 ([2]; 100 μM FA, incubation 16 h): > 10 µM | inhibition at 10 µM ([2]; Homo sapiens, A549, 2 h, 100 μM FA, incubation 2 h): 9% | inhibition at 10 µM ([2]; Homo sapiens, A549, 2 h, No FA, incubation 2 h): 7% | inhibition at 10 µM ([2]; Homo sapiens, A549, 4 h, 100 μM FA, incubation 4 h): ≤ 0% | inhibition at 10 µM ([2]; Homo sapiens, A549, 4 h, No FA, incubation 4 h): ≤ 0% | inhibition at 10 µM ([2]; Homo sapiens, A549, 8 h, 100 μM FA, incubation 8 h): ≤ 0% | inhibition at 10 µM ([2]; Homo sapiens, A549, 8 h, No FA, incubation 8 h): ≤ 0% | inhibition at 10 µM ([2]; Homo sapiens, A549, 16 h, 100 μM FA, incubation 16 h): 3.5% | inhibition at 10 µM ([2]; Homo sapiens, A549, 16 h, No FA, incubation 16 h): ≤ 0% | IC50 [2, 4]: > 10 µM | IC50 [2, 5]: > 10 µM | IC50 [2, 6]: > 10 µM | IC50 [2, 7]: > 10 µM

CC[C@]1(O)CC2CN(CCc3c([nH]c4ccccc34)[C@@](C(=O)OC)(c3cc4c(cc3OC)N(C)[C@H]3[C@@](O)(C(=O)OC)[C@H](O[Si]5(CCCCC(=O)OCc6ccccc6)CCCC5)[C@]5(CC)C=CCN6CC[C@]43[C@@H]65)C2)C1 (stereo partly drawn) [Example 12, (3aR,3a^1R,4R,5S,10bR)-methyl 4-((1-(5-(benzyloxy)-5-oxopentyl)silolan-1-yl)oxy)-3a-ethyl-9-((5S,7R,9S)-5-ethyl-5-hydroxy-9-(methoxycarbonyl)-2,4,5,6,7,8,9,10-octahydro-1H-3,7-methano[1]azacycloundecino[5,4-b]indol-9-yl)-5-hydroxy-8-methoxy-6-methyl-3a,3a^1,4,5,5a,6,11,12-octahydro-1H-indolizino[8,1-cd]carbazole-5-carboxylate]
hydrolysis (e.g. parent vinca) at pH 7.4 [3]: No evidence of hydrolysis

CCC1(O)CC2CN(CCc3c([nH]c4ccccc34)C(C(=O)OC)(c3cc4c(cc3OC)N(C)C3C(O)(C(=O)OC)C(O[Si]5(CCCCC(=O)NCCOCCOCCNC(=O)CCC(NC(=O)c6ccc(NCc7cnc8nc(N)nc(O)c8n7)cc6)C(=O)O)CCCCC5)C5(CC)C=CCN6CCC43C65)C2)C1 (centres unmarked) [Example 20]
IC50 ([1]; 100 μM FA, incubation 2 h): 4.2 µM | IC50 ([1]; 100 μM FA, incubation 4 h): 3.4 µM | IC50 ([1]; 100 μM FA, incubation 8 h): 3.1 µM | IC50 ([1]; 100 μM FA, incubation 16 h): 1.5 µM | IC50 ([1]; No FA, incubation 2 h): 3.5 µM | IC50 ([1]; No FA, incubation 4 h): 2.6 µM | IC50 ([1]; No FA, incubation 8 h): 1.8 µM | IC50 ([1]; No FA, incubation 16 h): 0.3 µM | Percentage inhibition at the highest concentration tested (10 μM) ([2]; 100 μM FA, incubation 2 h): 44% | IC50 ([2]; 100 μM FA, incubation 2 h): > 10 µM | IC50 ([2]; 100 μM FA, incubation 4 h): 6.6 µM | IC50 ([2]; 100 μM FA, incubation 8 h): 4.1 µM | IC50 ([2]; 100 μM FA, incubation 16 h): 1.4 µM | Percentage inhibition at the highest concentration tested (10 μM) ([2]; No FA, incubation 2 h): 20% | IC50 ([2]; No FA, incubation 2 h): > 10 µM | Percentage inhibition at the highest concentration tested (10 μM) ([2]; No FA, incubation 4 h): 46% | IC50 ([2]; No FA, incubation 4 h): > 10 µM | IC50 ([2]; No FA, incubation 8 h): 6.7 µM | IC50 ([2]; No FA, incubation 16 h): 1.4 µM

CC[C@]1(O)CC2CN(CCc3c([nH]c4ccccc34)[C@@](C(=O)OC)(c3cc4c(cc3OC)N(C)[C@H]3[C@@](O)(C(=O)OC)[C@H](O[Si]5(CCCCC(=O)NCCOCCOCCOCCNC(=O)CC[C@H](NC(=O)c6ccc(NCc7cnc8nc(N)nc(O)c8n7)cc6)C(=O)O)CCCCC5)[C@]5(CC)C=CCN6CC[C@]43[C@@H]65)C2)C1 (some centres unmarked) [Example 21]
IC50 ([1]; 100 μM FA, incubation 2 h): 6 µM | IC50 ([1]; 100 μM FA, incubation 4 h): 4 µM | IC50 ([1]; 100 μM FA, incubation 8 h): 3.1 µM | IC50 ([1]; 100 μM FA, incubation 16 h): 1.7 µM | IC50 ([1]; No FA, incubation 2 h): 4.1 µM | IC50 ([1]; No FA, incubation 4 h): 3.1 µM | IC50 ([1]; No FA, incubation 8 h): 2.3 µM | IC50 ([1]; No FA, incubation 16 h): 1.5 µM | Percentage inhibition at the highest concentration tested (10 μM) ([2]; 100 μM FA, incubation 2 h): 40% | IC50 ([2]; 100 μM FA, incubation 2 h): > 10 µM | IC50 ([2]; 100 μM FA, incubation 4 h): 8.6 µM | IC50 ([2]; 100 μM FA, incubation 8 h): 5.3 µM | IC50 ([2]; 100 μM FA, incubation 16 h): 1.8 µM | Percentage inhibition at the highest concentration tested (10 μM) ([2]; No FA, incubation 2 h): 8% | IC50 ([2]; No FA, incubation 2 h): > 10 µM | Percentage inhibition at the highest concentration tested (10 μM) ([2]; No FA, incubation 4 h): 24% | IC50 ([2]; No FA, incubation 4 h): > 10 µM | Percentage inhibition at the highest concentration tested (10 μM) ([2]; No FA, incubation 8 h): 47% | IC50 ([2]; No FA, incubation 8 h): > 10 µM | IC50 ([2]; No FA, incubation 16 h): 4.4 µM
